Data published in patent US8288431B2, “Substituted spiroindolinones” (Hoffmann-La Roche Inc., priority 2010, dated 2012).

Target: interaction between p53 and MDM2 proteins (recombinant GST-tagged MDM2, biotinylated p53 peptide) (Homo sapiens, UniProt Q00987)
Experiment: HTRF (homogeneous time-resolved fluorescence) assay of p53-MDM2 interaction
Format: binding
Details: bsa 0.02%
Protocol: The ability of the compounds to inhibit the interaction between p53 and MDM2 proteins was measured by an HTRF (homogeneous time-resolved fluorescence) assay in which recombinant GST-tagged MDM2 binds to a peptide that resembles the MDM2-interacting region of p53 (Lane et al.). Binding of GST-MDM2 protein and p53-peptide (biotinylated on its N-terminal end) is registered by the FRET (fluorescence resonance energy transfer) between Europium (Eu)-labeled anti-GST antibody and streptavidin-conjugated Allophycocyanin (APC).
Add 10 uL diluted compounds (1:5 dilution in reaction buffer) to each well, mix by shaking. Add 20 uL biotinylated p53 peptide (180 nM working solution) in reaction buffer to each well and mix on shaker. Incubate at 37° C. for 1 h. Add 20 uL streptavidin-APC and Eu-anti-GST antibody mixture (6 nM Eu-anti-GST and 60 nM streptavidin-APC working solution) in TBS buffer with 0.2% BSA, shake at room temperature for 30 minutes and read using a TRF-capable plate reader at
665 and 615 nm (Victor 5, Perkin ElmerWallac). If not specified, the reagents were purchased from Sigma Chemical Co.

interaction between p53 and MDM2 proteins (recombinant GST-tagged MDM2, biotinylated p53 peptide), sequence (Q00987 whole entry): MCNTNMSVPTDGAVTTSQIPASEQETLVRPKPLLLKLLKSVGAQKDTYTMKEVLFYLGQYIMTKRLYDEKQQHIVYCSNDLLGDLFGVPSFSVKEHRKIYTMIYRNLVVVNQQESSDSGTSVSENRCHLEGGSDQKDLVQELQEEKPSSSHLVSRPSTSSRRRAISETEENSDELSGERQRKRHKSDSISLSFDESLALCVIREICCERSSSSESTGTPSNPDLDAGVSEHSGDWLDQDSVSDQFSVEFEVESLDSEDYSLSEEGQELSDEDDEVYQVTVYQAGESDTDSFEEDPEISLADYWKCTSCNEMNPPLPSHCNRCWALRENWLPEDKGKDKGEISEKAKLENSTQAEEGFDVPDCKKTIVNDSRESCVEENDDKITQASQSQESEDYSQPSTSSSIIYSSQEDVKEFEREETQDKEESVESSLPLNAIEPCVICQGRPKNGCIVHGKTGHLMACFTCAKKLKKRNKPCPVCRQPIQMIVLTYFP

SMILES | IC50 [nM]
CC(C)(C)C[C@@H]1CN(C(=O)OCc2ccc(C(=O)O)cc2)[C@H](c2cccc(Cl)c2F)[C@]12C(=O)Nc1cc(Cl)ccc12 (racemic) [Example 49, rac-(2′S,3′S,4′S)-6-chloro-2′-(3-chloro-2-fluoro-phenyl)-4′-(2,2-dimethyl-propyl)-2-oxo-1,2-dihydro-spiro[indole-3,3′-pyrrolidine]-1′-carboxylic acid 4-carboxy-benzyl ester] | 178
CC(C)(C)C[C@@H]1CN[C@H](c2cccc(Cl)c2F)[C@]12C(=O)Nc1cc(Cl)ccc12 (racemic) [Example 6, rac-(2′S,3′S,4′S)-6-chloro-2′-(3-chloro-2-fluoro-phenyl)-4′-(2,2-dimethyl-propyl)-1H-spiro[indole-3,3′-pyrrolidin]-2-one] | 773
CC(C)(C)C[C@@H]1CN(C(=O)NC2CCN(S(C)(=O)=O)CC2)[C@H](c2cccc(Cl)c2F)[C@]12C(=O)Nc1cc(Cl)ccc12 [Example 28, chiral (2′S,3′S,4′S)-6-chloro-2′-(3-chloro-2-fluoro-phenyl)-4′-(2,2-dimethyl-propyl)-2-oxo-1,2-dihydro-spiro[indole-3,3′-pyrrolidine]-1′-carboxylic acid (1-methanesulfonyl-piperidin-4-yl)-amide] | 133
COC(=O)c1ccc(NC(=O)N2C[C@@H](CC(C)(C)C)[C@@]3(C(=O)Nc4cc(Cl)ccc43)[C@H]2c2cccc(Cl)c2F)cc1 (racemic) [Example 12, rac-4-{[(2′S,3′S,4′S)-6-chloro-2′-(3-chloro-2-fluoro-phenyl)-4′-(2,2-dimethyl-propyl)-2-oxo-1,2-dihydro-spiro[indole-3,3′-pyrrolidin]e-1′-carbonyl]-amino}-benzoic acid methyl ester] | 581
CC(C)(CO)C[C@@H]1CN(C(=O)NCC[C@H](O)CO)[C@H](c2cccc(Cl)c2F)[C@]12C(=O)Nc1cc(Cl)ccc12 (mixture of isomers) [Example 33, rac-(2′S,3′S,4′S)-6-chloro-2′-(3-chloro-2-fluoro-phenyl)-4′-(3-hydroxy-2,2-dimethyl-propyl)-2-oxo-1,2-dihydro-spiro[indole-3,3′-pyrrolidine]-1′-carboxylic acid ((S)-3,4-dihydroxy-butyl)-amide] | 725
